Reference: ChEMBL document CHEMBL4507305, “Data for DCP probe TP-024” (2021)

Experiments:
[1] = tested on: Epidermal growth factor receptor (Homo sapiens), P00533 [T790M]; details: Compound concentration 1000.0 nM
[2] = tested on: Proto-oncogene tyrosine-protein kinase receptor Ret (Homo sapiens), P07949 [V804M]; details: Compound concentration 1000.0 nM
[3] = molecular target: Mitogen-activated protein kinase kinase kinase 4 (Homo sapiens) (UniProt Q9Y6R4); details: Compound concentration 1000.0 nM
[4] = molecular target: Casein kinase I isoform gamma-3 (Homo sapiens) (UniProt Q9Y6M4); details: Compound concentration 1000.0 nM
[5] = molecular target: Vascular endothelial growth factor receptor 2 (Homo sapiens) (UniProt P35968); details: Compound concentration 1000.0 nM
[6] = molecular target: Membrane-associated tyrosine- and threonine-specific cdc2-inhibitory kinase (Homo sapiens) (UniProt Q99640); details: Compound concentration 1000.0 nM
[7] = molecular target: D(1B) dopamine receptor (Homo sapiens) (UniProt P21918); details: Compound concentration 10.0 uM
[8] = molecular target: Tyrosine-protein kinase ITK/TSK (Homo sapiens) (UniProt Q08881); details: Compound concentration 1000.0 nM
[9] = molecular target: Cyclin-dependent kinase 3 (Homo sapiens) (UniProt Q00526); details: Compound concentration 1000.0 nM
[10] = molecular target: Myosin light chain kinase, smooth muscle (Homo sapiens) (UniProt Q15746); details: Compound concentration 1000.0 nM
[11] = molecular target: Delta-type opioid receptor (Homo sapiens) (UniProt P41143); details: Compound concentration 10.0 uM
Sequence of Delta-type opioid receptor (Homo sapiens) (P41143 whole entry): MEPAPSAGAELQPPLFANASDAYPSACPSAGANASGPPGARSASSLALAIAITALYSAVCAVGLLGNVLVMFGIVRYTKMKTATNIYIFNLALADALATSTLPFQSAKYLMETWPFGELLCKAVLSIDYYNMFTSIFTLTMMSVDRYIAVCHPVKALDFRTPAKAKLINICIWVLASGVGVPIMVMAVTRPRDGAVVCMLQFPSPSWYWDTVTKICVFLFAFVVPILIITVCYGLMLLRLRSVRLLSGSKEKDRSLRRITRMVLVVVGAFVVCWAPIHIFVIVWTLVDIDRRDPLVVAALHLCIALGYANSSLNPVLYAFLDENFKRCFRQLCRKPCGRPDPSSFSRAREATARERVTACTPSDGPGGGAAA

[12] = molecular target: Ephrin type-B receptor 6 (Homo sapiens) (UniProt O15197); details: Compound concentration 1000.0 nM
[13] = molecular target: Tyrosine-protein kinase ABL2 (Homo sapiens) (UniProt P42684); details: Compound concentration 1000.0 nM
[14] = molecular target: RAC-beta serine/threonine-protein kinase (Homo sapiens) (UniProt P31751); details: Compound concentration 1000.0 nM
[15] = molecular target: Beta-2 adrenergic receptor (Homo sapiens) (UniProt P07550); details: Compound concentration 10.0 uM
[16] = molecular target: Serine/threonine-protein kinase Sgk3 (Homo sapiens) (UniProt Q96BR1); details: Compound concentration 1000.0 nM
[17] = molecular target: Macrophage colony-stimulating factor 1 receptor (Homo sapiens) (UniProt P07333); details: Compound concentration 1000.0 nM
[18] = molecular target: Calcium/calmodulin-dependent protein kinase kinase 1 (Homo sapiens) (UniProt Q8N5S9); details: Compound concentration 1000.0 nM
[19] = molecular target: Protein kinase C theta type (Homo sapiens) (UniProt Q04759); details: Compound concentration 1000.0 nM
[20] = tested on: Tyrosine-protein kinase ABL1 (Homo sapiens), P00519 [F317L]; details: Compound concentration 1000.0 nM
[21] = molecular target: Phosphatidylinositol 4-phosphate 5-kinase type-1 alpha (Homo sapiens) (UniProt Q99755); details: Compound concentration 1000.0 nM
Sequence of Phosphatidylinositol 4-phosphate 5-kinase type-1 alpha (Homo sapiens) (Q99755 whole entry): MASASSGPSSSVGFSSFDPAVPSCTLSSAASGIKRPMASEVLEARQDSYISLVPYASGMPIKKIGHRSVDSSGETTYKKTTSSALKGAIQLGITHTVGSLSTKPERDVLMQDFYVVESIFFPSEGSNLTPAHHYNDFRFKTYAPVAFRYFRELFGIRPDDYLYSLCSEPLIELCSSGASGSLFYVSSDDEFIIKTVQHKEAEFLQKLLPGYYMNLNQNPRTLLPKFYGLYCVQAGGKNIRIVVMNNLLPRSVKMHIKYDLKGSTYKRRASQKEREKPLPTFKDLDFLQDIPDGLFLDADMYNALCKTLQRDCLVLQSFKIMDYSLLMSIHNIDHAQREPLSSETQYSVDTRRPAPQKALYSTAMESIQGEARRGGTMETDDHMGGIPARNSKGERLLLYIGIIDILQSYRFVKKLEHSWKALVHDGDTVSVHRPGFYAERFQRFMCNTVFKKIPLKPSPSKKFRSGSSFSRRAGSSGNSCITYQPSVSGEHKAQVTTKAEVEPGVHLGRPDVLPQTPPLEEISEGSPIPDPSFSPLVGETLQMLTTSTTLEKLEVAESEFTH

[22] = molecular target: Serine/threonine-protein kinase PknB (Mycobacterium tuberculosis) (UniProt P9WI81); details: Compound concentration 1000.0 nM
[23] = molecular target: Wee1-like protein kinase 2 (Homo sapiens) (UniProt P0C1S8); details: Compound concentration 1000.0 nM
[24] = molecular target: Muscarinic acetylcholine receptor M2 (Homo sapiens) (UniProt P08172); details: Compound concentration 10.0 uM
Sequence of Muscarinic acetylcholine receptor M2 (Homo sapiens) (P08172 whole entry): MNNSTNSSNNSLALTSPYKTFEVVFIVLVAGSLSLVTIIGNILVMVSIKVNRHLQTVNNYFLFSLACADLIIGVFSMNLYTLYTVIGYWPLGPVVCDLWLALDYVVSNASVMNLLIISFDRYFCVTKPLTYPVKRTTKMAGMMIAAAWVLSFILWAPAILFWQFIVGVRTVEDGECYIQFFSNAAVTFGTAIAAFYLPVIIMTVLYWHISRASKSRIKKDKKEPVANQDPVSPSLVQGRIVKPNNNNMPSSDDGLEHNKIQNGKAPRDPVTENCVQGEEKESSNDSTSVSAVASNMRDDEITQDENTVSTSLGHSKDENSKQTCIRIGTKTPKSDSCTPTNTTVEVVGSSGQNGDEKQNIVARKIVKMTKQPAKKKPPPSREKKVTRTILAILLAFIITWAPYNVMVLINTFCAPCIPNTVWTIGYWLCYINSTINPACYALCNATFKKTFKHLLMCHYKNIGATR

[25] = molecular target: Mitogen-activated protein kinase kinase kinase 13 (Homo sapiens) (UniProt O43283); details: Compound concentration 1000.0 nM
[26] = molecular target: Serine/threonine-protein kinase VRK2 (Homo sapiens) (UniProt Q86Y07); details: Compound concentration 1000.0 nM
[27] = molecular target: Mitotic checkpoint serine/threonine-protein kinase BUB1 (Homo sapiens) (UniProt O43683); details: Compound concentration 1000.0 nM
[28] = molecular target: Tyrosine-protein kinase Fgr (Homo sapiens) (UniProt P09769); details: Compound concentration 1000.0 nM
[29] = molecular target: Phosphatidylinositol 4,5-bisphosphate 3-kinase catalytic subunit delta isoform (Homo sapiens) (UniProt O00329); details: Compound concentration 1000.0 nM
Sequence of Phosphatidylinositol 4,5-bisphosphate 3-kinase catalytic subunit delta isoform (Homo sapiens) (O00329 whole entry, canonical isoform): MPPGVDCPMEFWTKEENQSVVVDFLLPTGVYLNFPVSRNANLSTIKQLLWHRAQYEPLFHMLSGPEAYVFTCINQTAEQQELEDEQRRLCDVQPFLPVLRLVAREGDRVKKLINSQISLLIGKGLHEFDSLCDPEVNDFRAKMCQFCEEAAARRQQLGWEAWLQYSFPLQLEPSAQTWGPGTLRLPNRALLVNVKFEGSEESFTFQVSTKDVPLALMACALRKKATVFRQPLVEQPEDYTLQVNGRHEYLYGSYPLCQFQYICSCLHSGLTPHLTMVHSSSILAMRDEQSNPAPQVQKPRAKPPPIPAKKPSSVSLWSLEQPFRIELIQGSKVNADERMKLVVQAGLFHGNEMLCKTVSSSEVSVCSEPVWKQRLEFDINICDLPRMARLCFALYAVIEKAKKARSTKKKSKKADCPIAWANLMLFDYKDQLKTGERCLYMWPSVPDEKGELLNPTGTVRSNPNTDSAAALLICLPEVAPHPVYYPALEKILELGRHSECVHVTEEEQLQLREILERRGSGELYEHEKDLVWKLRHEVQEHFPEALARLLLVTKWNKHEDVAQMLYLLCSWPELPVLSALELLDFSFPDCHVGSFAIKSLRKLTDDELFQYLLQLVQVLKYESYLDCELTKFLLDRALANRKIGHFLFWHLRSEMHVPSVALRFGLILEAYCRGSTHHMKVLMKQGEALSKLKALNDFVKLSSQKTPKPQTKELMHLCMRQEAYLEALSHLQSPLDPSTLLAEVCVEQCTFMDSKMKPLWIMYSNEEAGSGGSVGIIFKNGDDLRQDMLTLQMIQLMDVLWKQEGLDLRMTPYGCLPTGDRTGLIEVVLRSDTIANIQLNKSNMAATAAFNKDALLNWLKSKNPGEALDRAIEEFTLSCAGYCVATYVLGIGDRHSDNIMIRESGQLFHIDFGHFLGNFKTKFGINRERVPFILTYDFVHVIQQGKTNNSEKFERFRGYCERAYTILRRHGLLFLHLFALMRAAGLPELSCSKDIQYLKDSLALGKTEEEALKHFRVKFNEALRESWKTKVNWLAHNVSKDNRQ

[30] = molecular target: Dual specificity mitogen-activated protein kinase kinase 3 (Homo sapiens) (UniProt P46734); details: Compound concentration 1000.0 nM
[31] = molecular target: Cyclin-dependent kinase 4 (Homo sapiens) (UniProt P11802); details: Compound concentration 1000.0 nM
[32] = molecular target: Beta-adrenergic receptor kinase 1 (Homo sapiens) (UniProt P25098); details: Compound concentration 1000.0 nM
[33] = molecular target: Calcium/calmodulin-dependent protein kinase type II subunit delta (Homo sapiens) (UniProt Q13557); details: Compound concentration 1000.0 nM
[34] = molecular target: Serine/threonine-protein kinase MAK (Homo sapiens) (UniProt P20794); details: Compound concentration 1000.0 nM
[35] = molecular target: Ribosomal protein S6 kinase alpha-1 (Homo sapiens) (UniProt Q15418); details: Compound concentration 1000.0 nM
[36] = molecular target: Cyclin-dependent kinase 16 (Homo sapiens) (UniProt Q00536); details: Compound concentration 1000.0 nM
[37] = molecular target: Serine/threonine-protein kinase/endoribonuclease IRE1 (Homo sapiens) (UniProt O75460); details: Compound concentration 1000.0 nM
[38] = molecular target: cAMP-dependent protein kinase catalytic subunit beta (Homo sapiens) (UniProt P22694); details: Compound concentration 1000.0 nM
[39] = molecular target: 5-hydroxytryptamine receptor 2A (Homo sapiens) (UniProt P28223); details: Compound concentration 10.0 uM
[40] = molecular target: Glycogen synthase kinase-3 beta (Homo sapiens) (UniProt P49841); details: Compound concentration 1000.0 nM
[41] = molecular target: Ribosomal protein S6 kinase alpha-6 (Homo sapiens) (UniProt Q9UK32); details: Compound concentration 1000.0 nM
Sequence of Ribosomal protein S6 kinase alpha-6 (Homo sapiens) (Q9UK32 whole entry): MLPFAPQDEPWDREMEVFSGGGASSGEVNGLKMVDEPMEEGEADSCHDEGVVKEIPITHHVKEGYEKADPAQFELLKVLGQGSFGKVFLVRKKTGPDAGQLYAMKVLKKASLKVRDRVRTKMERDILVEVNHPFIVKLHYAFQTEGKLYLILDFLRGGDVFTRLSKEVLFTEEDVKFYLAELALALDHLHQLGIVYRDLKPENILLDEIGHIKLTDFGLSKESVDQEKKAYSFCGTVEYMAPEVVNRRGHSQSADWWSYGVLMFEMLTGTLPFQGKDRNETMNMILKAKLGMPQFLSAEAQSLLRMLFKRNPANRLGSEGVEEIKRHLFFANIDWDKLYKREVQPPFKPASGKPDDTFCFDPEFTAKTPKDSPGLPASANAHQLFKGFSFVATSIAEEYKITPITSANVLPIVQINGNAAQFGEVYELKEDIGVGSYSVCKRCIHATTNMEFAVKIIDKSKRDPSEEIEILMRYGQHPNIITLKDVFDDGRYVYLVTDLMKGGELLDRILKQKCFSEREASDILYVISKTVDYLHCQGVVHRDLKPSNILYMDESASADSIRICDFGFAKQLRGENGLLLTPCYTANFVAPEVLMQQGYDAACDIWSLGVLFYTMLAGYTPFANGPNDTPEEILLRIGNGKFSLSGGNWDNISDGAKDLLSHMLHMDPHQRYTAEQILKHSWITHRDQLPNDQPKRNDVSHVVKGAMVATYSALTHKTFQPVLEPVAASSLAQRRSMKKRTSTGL

[42] = molecular target: Mitogen-activated protein kinase kinase kinase kinase 1 (Homo sapiens) (UniProt Q92918); details: Compound concentration 1000.0 nM
[43] = molecular target: Activin receptor type-2A (Homo sapiens) (UniProt P27037); details: Compound concentration 1000.0 nM
[44] = tested on: Mast/stem cell growth factor receptor Kit (Homo sapiens), P10721 [V559D,V654A]; details: Compound concentration 1000.0 nM
Sequence of Mast/stem cell growth factor receptor Kit (Homo sapiens), P10721 [V559D,V654A] (P10721 whole entry V559D/V654A): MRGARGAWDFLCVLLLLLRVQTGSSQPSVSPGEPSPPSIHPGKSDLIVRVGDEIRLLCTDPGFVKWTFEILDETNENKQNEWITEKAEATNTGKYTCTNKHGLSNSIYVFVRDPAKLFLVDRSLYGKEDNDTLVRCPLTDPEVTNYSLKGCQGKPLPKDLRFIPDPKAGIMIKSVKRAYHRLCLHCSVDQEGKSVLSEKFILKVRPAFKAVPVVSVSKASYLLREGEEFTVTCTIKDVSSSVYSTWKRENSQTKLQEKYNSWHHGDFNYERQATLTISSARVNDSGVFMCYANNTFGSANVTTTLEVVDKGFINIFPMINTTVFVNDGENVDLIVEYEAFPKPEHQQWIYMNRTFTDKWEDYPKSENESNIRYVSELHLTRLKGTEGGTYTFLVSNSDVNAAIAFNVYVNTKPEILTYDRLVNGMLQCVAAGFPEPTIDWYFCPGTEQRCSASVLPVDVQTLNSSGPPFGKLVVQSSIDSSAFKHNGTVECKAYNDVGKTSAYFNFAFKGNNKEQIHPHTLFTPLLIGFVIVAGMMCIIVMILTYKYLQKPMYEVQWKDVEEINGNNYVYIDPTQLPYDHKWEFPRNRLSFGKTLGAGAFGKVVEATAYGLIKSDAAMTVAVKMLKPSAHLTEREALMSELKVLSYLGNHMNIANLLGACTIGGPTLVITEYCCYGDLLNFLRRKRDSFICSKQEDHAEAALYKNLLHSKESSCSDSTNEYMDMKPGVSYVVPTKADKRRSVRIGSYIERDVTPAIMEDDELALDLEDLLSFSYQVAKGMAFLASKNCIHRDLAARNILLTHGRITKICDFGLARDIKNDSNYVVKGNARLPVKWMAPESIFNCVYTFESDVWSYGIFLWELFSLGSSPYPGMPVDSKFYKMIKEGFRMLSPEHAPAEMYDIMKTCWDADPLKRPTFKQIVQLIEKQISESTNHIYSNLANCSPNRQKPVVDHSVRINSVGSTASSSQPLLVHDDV

[45] = molecular target: Mitogen-activated protein kinase kinase kinase kinase 3 (Homo sapiens) (UniProt Q8IVH8); details: Compound concentration 1000.0 nM
Sequence of Mitogen-activated protein kinase kinase kinase kinase 3 (Homo sapiens) (Q8IVH8 whole entry): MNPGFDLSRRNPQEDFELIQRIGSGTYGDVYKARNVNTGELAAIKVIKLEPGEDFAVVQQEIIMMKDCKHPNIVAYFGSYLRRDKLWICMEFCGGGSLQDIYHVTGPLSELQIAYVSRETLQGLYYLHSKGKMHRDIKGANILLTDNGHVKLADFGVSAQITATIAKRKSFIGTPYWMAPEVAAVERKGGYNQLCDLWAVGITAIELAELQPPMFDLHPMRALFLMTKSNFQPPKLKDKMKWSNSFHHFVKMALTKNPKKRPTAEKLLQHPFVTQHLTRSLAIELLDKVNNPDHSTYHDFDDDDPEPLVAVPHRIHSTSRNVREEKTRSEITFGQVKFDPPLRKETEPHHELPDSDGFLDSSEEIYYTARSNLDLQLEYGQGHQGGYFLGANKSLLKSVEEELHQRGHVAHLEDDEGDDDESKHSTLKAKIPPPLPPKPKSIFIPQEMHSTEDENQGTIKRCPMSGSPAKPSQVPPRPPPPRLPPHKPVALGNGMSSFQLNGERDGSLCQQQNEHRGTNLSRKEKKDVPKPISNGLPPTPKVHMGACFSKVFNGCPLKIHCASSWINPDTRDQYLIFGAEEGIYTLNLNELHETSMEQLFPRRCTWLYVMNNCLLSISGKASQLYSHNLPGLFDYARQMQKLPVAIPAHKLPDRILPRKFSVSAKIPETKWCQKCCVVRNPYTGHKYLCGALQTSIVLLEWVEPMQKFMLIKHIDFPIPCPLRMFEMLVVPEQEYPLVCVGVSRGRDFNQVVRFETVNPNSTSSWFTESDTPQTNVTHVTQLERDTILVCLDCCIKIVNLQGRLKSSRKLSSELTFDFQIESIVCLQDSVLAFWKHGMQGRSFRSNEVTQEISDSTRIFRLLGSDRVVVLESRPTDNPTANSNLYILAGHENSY

Cc1cc(-n2nc(Cc3cc(F)cc(C(F)(F)F)c3)nc2C)ccc1C(N)=O [TP-024]
inactive: residual activity [1] 94% | residual activity [2] 100% | residual activity [3] 98% | residual activity [4] 95% | residual activity [5] 100% | residual activity [6] 88% | inhibition [7] 14.3% | residual activity [8] 93% | residual activity [9] 100% | residual activity [10] 100% | inhibition [11] -1.45% | residual activity [12] 100% | residual activity [13] 100% | residual activity [14] 100% | inhibition [15] -1.39% | residual activity [16] 80% | residual activity [17] 100% | residual activity [18] 100% | residual activity [19] 100% | residual activity [20] 100% | residual activity [21] 100% | residual activity [22] 78% | residual activity [23] 100% | inhibition [24] 5.69% | residual activity [25] 100% | residual activity [26] 100% | residual activity [27] 100% | residual activity [28] 94% | residual activity [29] 52% | residual activity [30] 100% | residual activity [31] 100% | residual activity [32] 100% | residual activity [33] 100% | residual activity [34] 100% | residual activity [35] 100% | residual activity [36] 100% | residual activity [37] 100% | residual activity [38] 100% | inhibition [39] 10.5% | residual activity [40] 98% | residual activity [41] 100% | residual activity [42] 100% | residual activity [43] 100% | residual activity [44] 97% | residual activity [45] 69%

Cc1nc(Cc2cccc(C(F)(F)F)c2)sc1-c1ccc(C(N)=O)nc1 [TP-024n]
inactive: residual activity [1] 98% | residual activity [2] 88% | residual activity [3] 72% | residual activity [4] 93% | residual activity [5] 86% | residual activity [6] 67% | inhibition [7] 13.8% | residual activity [8] 100% | residual activity [9] 88% | residual activity [10] 95% | inhibition [11] 4.01% | residual activity [12] 100% | residual activity [13] 100% | residual activity [14] 81% | inhibition [15] 2.07% | residual activity [16] 100% | residual activity [17] 100% | residual activity [18] 98% | residual activity [19] 94% | residual activity [20] 89% | residual activity [21] 100% | residual activity [22] 99% | residual activity [23] 100% | inhibition [24] 12.8% | residual activity [25] 100% | residual activity [26] 100% | residual activity [27] 100% | residual activity [28] 100% | residual activity [29] 100% | residual activity [30] 93% | residual activity [31] 99% | residual activity [32] 100% | residual activity [33] 100% | residual activity [34] 81% | residual activity [35] 79% | residual activity [36] 100% | residual activity [37] 100% | residual activity [38] 92% | inhibition [39] 20.4% | residual activity [40] 100% | residual activity [41] 100% | residual activity [42] 100% | residual activity [43] 85% | residual activity [44] 83% | residual activity [45] 76%
